SMILES strings stand for the structures.

The target in one assay is T1, Recombinant human GSK3β (Homo sapiens, UniProt P49841).
T1 construct: His-tag; made in house; host or cells: Sf9 insect cells / baculovirus
T1 sequence (P49841 whole entry): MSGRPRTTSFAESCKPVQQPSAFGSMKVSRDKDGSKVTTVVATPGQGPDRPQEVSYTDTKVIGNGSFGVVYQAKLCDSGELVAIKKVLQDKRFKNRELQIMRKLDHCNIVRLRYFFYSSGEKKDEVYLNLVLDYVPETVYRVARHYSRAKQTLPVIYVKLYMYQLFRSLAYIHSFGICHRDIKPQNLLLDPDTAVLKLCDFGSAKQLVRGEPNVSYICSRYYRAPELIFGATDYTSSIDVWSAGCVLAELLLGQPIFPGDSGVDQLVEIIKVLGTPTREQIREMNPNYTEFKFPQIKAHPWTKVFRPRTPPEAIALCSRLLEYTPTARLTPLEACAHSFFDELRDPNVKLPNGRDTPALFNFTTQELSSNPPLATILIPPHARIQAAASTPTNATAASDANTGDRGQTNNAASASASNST
The assay can be described thus: GSK-3β (Glycogen Synthase Kinase) cell free enzyme assay. It counts as biochemical. The following applies: 1 μM; Examples 157-199; read-out: Percent inhibition at 1 μM. The essentials: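 Recombinant human GSK3β, expressed in SF9/baculovirus cells and His-tag purified on Ni-NTA Superflow, was preincubated with test agent for 30 minutes at room temperature. Substrate mix was then added to start the reaction in 8 mM MOPS (pH 7.0), 10 mM magnesium acetate, 0.2 mM EDTA, 1 mM DTT, 2 uM cold ATP, 0.025 uCi/well [33P]ATP (120 uL) and 1.0 uM biotinylated peptide. Reactions ran at RT for 60 min.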
With `CCN(c1nc(-c2ccncc2)cc(=O)n1C)C1CCCN(S(C)(=O)=O)C1` (centres unmarked) [Example 164, 2-{Ethyl[1-(methylsulfonyl)piperidin-3-yl]amino)-3-methyl-6-pyridin-4-ylpyrimidin-4(3H)-one], the inhibition at 1 µM stood at 82%. On the same count and under the same terms, in the case of `Cn1c(NC2CCCN(S(=O)(=O)c3ccccc3)CC2)nc(-c2ccncc2)cc1=O` (centres unmarked) [Example 170, 3-Methyl-2-{[1-(phenylsulfonyl)azepan-4-yl]amino}-6-pyridin-4-ylpyrimidin-4(3H)-one] it was 99%; in that of `CN(c1nc(-c2ccncc2)cc(=O)n1C)C1CCCN(S(=O)(=O)Cc2ccccc2)CC1` (centres unmarked) [Example 196, 2-{[1-(Benzylsulfonyl)azepan-4-yl](methyl)amino}-3-methyl-6-pyridin-4-ylpyrimidin-4(3H)-one], 94%.

Staying with this assay, now noted: 1 μM; Examples 201-221; read-out: Percent inhibition at 1 μM.
On to `COC(=O)N1CCCCC(Nc2nc(-c3ccncc3)cc(=O)n2C)C1` (centres unmarked) [Example 206, Methyl 3-[(1-methyl-6-oxo-4-pyridin-4-yl-16-dihydropyrimidin-2-yl)amino]azepane-1-carboxylate], for which the inhibition at 1 µM was determined as 94%. Still for that read-out and setting: next, `COC(=O)N1C[C@H](F)[C@H](Nc2nc(-c3ccncc3)cc(=O)n2C)C1` [Example 211, Methyl (3S,4R)-3-fluoro-4-[(1-methyl-6-oxo-4-pyridin-4-yl-16-dihydropyrimidin-2-yl)amino]pyrrolidine-1-carboxylate]: 67%; `COC(=O)N1CCC[C@@H]1CNc1nc(-c2ccncc2)cc(=O)n1C` [Example 220, Methyl (2R)-2-{[(1-methyl-6-oxo-4-pyridin-4-yl-16-dihydropyrimidin-2-yl)amino]methyl}pyrrolidine-1-carboxylate]: 91%.

The same assay, now with this note: 1 μM; Examples 236-262; read-out: Percent inhibition at 1 μM.
Turning to `CCN(c1nc(-c2ccncc2)cc(=O)n1C)C1CCCN(Cc2ccccc2)CC1` (centres unmarked) [Example 259, 2-[(1-Benzylazepan-4-yl)(ethyl)amino]-3-methyl-6-pyridin-4-ylpyrimidin-4(3H)-one], the inhibition at 1 µM stood at 83%. Take `CN1CCC(N(C)c2nc(-c3ccncc3)cc(=O)n2C)C1` (centres unmarked) [Example 245, 3-Methyl-2-[methyl(1-methylpyrrolidin-3-yl)amino]-6-pyridin-4-ylpyrimidin-4(3H)-one]: the inhibition at 1 µM is 52%.

The same assay, now with this note: 1 μM; GSK-3β cell free enzyme assay; Examples 42-60; read-out: Percent inhibition at 1 μM.
`CCN(c1nc(-c2ccncc2)cc(=O)n1C)C1CCCN(C(C)=O)CC1` (centres unmarked) [Example 56, 2-[(1-Acetylazepan-4-yl)(ethyl)amino]-3-methyl-6-pyridin-4-ylpyrimidin-4(3H)-one]: the inhibition at 1 µM was determined as 85%. Still for that read-out and setting: in the case of `CC(=O)N[C@@H]1CC[C@@H](Nc2nc(-c3ccncc3)cc(=O)n2C)C1` [Example 60, N-{(1R,3R)-3-[(1-Methyl-6-oxo-4-pyridin-4-yl-16-dihydropyrimidin-2-yl)amino]cyclopentyl} acetamide] it was 77%; in that of `CC(=O)N1CCC(Nc2nc(-c3ccncc3)cc(=O)n2C)CC1` [Example 47, 2-[(1-Acetylpiperidin-4-yl)amino]-3-methyl-6-pyridin-4-ylpyrimidin-4(3H)-one], 44%.

The same assay, now with this note: cell free enzyme assay; Examples 1-35.
`Cn1c(N[C@H]2[C@@H]3CN(C(=O)OC(C)(C)C)C[C@@H]32)nc(-c2ccncc2)cc1=O` [Example 6, tert-butyl (1R,5S,6s)-6-[(1-Methyl-6-oxo-4-pyridin-4-yl-1,6-dihydropyrimidin-2-yl)amino]-3-azabicyclo[3.1.0] hexane-3-carboxylate]: the IC50 was 2.8 nM. Still for that read-out and setting: in the case of `CN(c1nc(-c2ccncc2)cc(=O)n1C)C1CCCN(C(=O)OC(C)(C)C)CC1` (centres unmarked) [Example 10, tert-butyl 4-[Methyl(1-methyl-6-oxo-4-pyridin-4-yl-1,6-dihydropyrimidin-2-yl)amino]azepane-1-carboxylate] it was 14.4 nM.

On to `Cn1c(NCCn2c(=O)ccc3ccccc32)nc(-c2ccncc2)cc1=O` [Example 30, 1-{2-[(1-Methyl-6-oxo-4-pyridin-4-yl-1,6-dihydropyrimidin-2-yl)amino]ethyl} quinolin-2(1H)-one], for which the IC50 is 25 nM. Same read-out and setting: next, `Cn1c(N[C@H]2[C@@H]3CN(C(=O)OC(C)(C)C)C[C@@H]32)nc(-c2ccncc2)cc1=O` [Example 2, tert-butyl (1R,5S,6s)-6-[(1-Methyl-6-oxo-4-pyridin-4-yl-1,6-dihydropyrimidin-2-yl)amino]-3-azabicyclo[3.1.0] hexane-3-carboxylate]: 2.2 nM.

Still in this assay, the particulars now being: cell free enzyme assay; Examples 62-155.
Regarding `Cn1c(NC2CCCN(C(=O)Cc3ccccc3)C2)nc(-c2ccncc2)cc1=O` (centres unmarked) [Example 86, 3-Methyl-2-{[1-(phenylacetyl)piperidin-3-yl]amino}-6-pyridin-4-ylpyrimidin-4(3H)-one], the IC50 is 136 nM. Still for that read-out and setting: next, `Cn1c(NC2CCN(C(=O)c3ccccc3)CC2)nc(-c2ccncc2)cc1=O` [Example 65, 2-[(1-Benzoylpiperidin-4-yl)amino]-3-methyl-6-pyridin-4-ylpyrimidin-4(3H)-one]: 202 nM; `CCN(c1nc(-c2ccncc2)cc(=O)n1C)C1CCN(C(=O)c2ccccc2)C1` (centres unmarked) [Example 69, 2-[(1-Benzoylpyrrolidin-3-yl)(ethyl)amino]-3-methyl-6-pyridin-4-ylpyrimidin-4(3H)-one]: 96.1 nM.

`Cn1c(N[C@H]2[C@@H]3CN(C(=O)c4ccccc4)C[C@@H]32)nc(-c2ccncc2)cc1=O` [Example 67, 2-{[(1R,5S,6s)-3-Benzoyl-3-azabicyclo[3.1.0]hex-6-yl]amino}-3-methyl-6-pyridin-4-ylpyrimidin-4(3H)-one]: the IC50 is 2 nM.

For `Cc1cccc(C(=O)N2C[C@@H]3[C@H](C2)[C@H]3N(C)c2nc(-c3ccncc3F)cc(=O)n2C)c1` [Example 132, 6-(3-Fluoropyridin-4-yl)-3-methyl-2-{methyl[(1R,5S,6s)-3-(3-methylbenzoyl)-3-azabicyclo[3.1.0]hex-6-yl]amino}pyrimidin-4(3H)-one], the IC50 turned out to be 1.05 nM. The same measure, in the same setting: in the case of `Cn1c(NC2CCN(C(=O)Cc3ccccc3)C2)nc(-c2ccncc2)cc1=O` (centres unmarked) [Example 81, 3-Methyl-2-{[1-(phenylacetyl)pyrrolidin-3-yl]amino}-6-pyridin-4-ylpyrimidin-4(3H)-one] it was 111 nM. The same measure, in the same setting: next, `CC(C)CC(=O)N1C[C@@H]2[C@H](C1)[C@H]2N(C)c1nc(-c2ccncc2F)cc(=O)n1C` [Example 110, 6-(3-Fluoropyridin-4-yl)-3-methyl-2-{methyl[(1R,5S,6s)-3-(3-methylbutanoyl)-3-azabicyclo[3.1.0]hex-6-yl]amino}pyrimidin-4(3H)-one]: 18.3 nM.

The assay is the same for the next values; noted with them: cell free enzyme assay; Examples 265-291.
As to `Cc1nn(C2CCCC2)c2nc(N3C[C@@H]4[C@H](C3)[C@H]4N(C)c3nc(-c4ccncc4F)cc(=O)n3C)[nH]c(=O)c12` [Example 277, 1-Cyclopentyl-6-[(1R,5S,6s)-6-{[4-(3-fluoropyridin-4-yl)-1-methyl-6-oxo-1,6-dihydropyrimidin-2-yl](methyl)amino}-3-azabicyclo[3.1.0]hex-3-yl]-3-methyl-1,5-dihydro-4H-pyrazolo[3,4-d]pyrimidin-4-one], the IC50 came to 51.7 nM.
